Assay results: patent US8158607B2, “Crystalline form of lamivudine” (Lupin Limited, priority 2006, dated 2012)

Key:
[1] = Tablet dissolution in 0.1 N HCl, paddle; format: physicochemical; conditions: combination tablet, 50 rpm, 900 ml
[2] = Polymorphic stability when slurried in water; format: physicochemical; conditions: slurried in water at ambient temperature for 24 to 48 hours
Experimental: A suspension of the Lamivudine form-II (5.0 gm) in water (5.0 ml) was stirred at 25° C. for 48 hours. The suspension was cooled and stirred at 10° C. for one hour. The product was filtered and then dried under vacuum at 45° C. for 24 hours. Yield=4.5 gms
A suspension of the Lamivudine form-I (2.0 gm) in water (2.0 ml) was stirred at 25° C. for 24 hours. The suspension was cooled and stirred at 10° C. for one hour. The product was filtered and then dried under vacuum at 45° C. for 24 hours. Yield=1.6 gms

[3] = background, U.S. Pat. No. 5,905,082; cited from earlier work
[4] = Bulk density and tap density of crystal forms; format: physicochemical
From the text: The novel crystalline hemihydrate form (form III) of Lamivudine has better flow property and bulk density, which are important parameters for formulation (Table I). [table]

[5] = Flow property (angle of repose); format: physicochemical; conditions: procedure of Lachman et al., page 317
[6] = Bioavailability; format: in vivo; conditions: compared with known forms
[7] = Storage stability at 40±2° C. RH 75±5%; format: physicochemical; conditions: stored at 40±2° C. RH 75±5%
[8] = Polymorphic stability during milling; format: physicochemical

| Structure (SMILES) | Dissolution (%) ([1]; 5 minutes) | Dissolution (%) ([1]; 10 minutes) | Dissolution (%) ([1]; 20 minutes) | Dissolution (%) ([1]; 30 minutes) | Dissolution (%) ([1]; 40 minutes) | Change of crystal form when slurried in water [2] | Bulk Density [4] | Tap Density [4] | Flow Property (Angle of Repose) [5] | Bioavailability [6] | Stability on storage [7] | Change of crystal form during milling and formulation operation [3] | Change in crystal structure during milling [8] |
| --- | --- | --- | --- | --- | --- | --- | --- | --- | --- | --- | --- | --- | --- |
| Nc1cc[n+](C2CSC(CO)O2)c(=O)[nH]1 (stereo not drawn) [Form I, (2R-cis)-4-amino-1-[2-(hydroxymethyl)-1,3-oxathiolan-5-yl]-2(1H)-pyrimidinone] |  |  |  |  |  | get converted to Form III | 0.46 gm/cc | 0.60 gm/cc | 33.66° |  |  | converts to form II |  |
| Nc1cc[n+](C2CSC(CO)O2)c(=O)[nH]1 (stereo not drawn) [Lamivudine, (2R-cis)-4-amino-1-[2-(hydroxymethyl)-1,3-oxathiolan-5-yl]-2(1H)-pyrimidinone] | 80.9% | 86.2% | 92.0% | 96.0% | 96.7% |  |  |  |  |  |  |  |  |
| Nc1cc[n+](C2CSC(CO)O2)c(=O)[nH]1 (stereo not drawn) [Form II, (2R-cis)-4-amino-1-[2-(hydroxymethyl)-1,3-oxathiolan-5-yl]-2(1H)-pyrimidinone] |  |  |  |  |  | get converted to Form III | 0.38 gm/cc | 0.55 gm/cc | 32.00° |  |  |  |  |

Now from value to compound, other results behind:

| Dissolution (%) ([1]; 5 minutes) | Dissolution (%) ([1]; 10 minutes) | Dissolution (%) ([1]; 20 minutes) | Dissolution (%) ([1]; 30 minutes) | Dissolution (%) ([1]; 40 minutes) | Change of crystal form when slurried in water [2] | Bulk Density [4] | Tap Density [4] | Flow Property (Angle of Repose) [5] | Bioavailability [6] | Stability on storage [7] | Structure (SMILES) | Change of crystal form during milling and formulation operation [3] | Change in crystal structure during milling [8] |
| --- | --- | --- | --- | --- | --- | --- | --- | --- | --- | --- | --- | --- | --- |
| 81.1% | 87.8% | 95.2% | 100.4% | 101.5% |  |  |  |  |  |  | Cc1cn([C@H]2C[C@H](N=[N+]=[N-])[C@@H](CO)O2)c(=O)[nH]c1=O [Zidovudine] |  |  |
|  |  |  |  |  |  | 0.64 gm/cc | 0.83 gm/cc | 32.00° | comparable bioavailability | stable for more than three months | Nc1cc[n+](C2CSC(CO)O2)c(=O)[nH]1 (stereo not drawn) [Form III, (2R-cis)-4-amino-1-[2-(hydroxymethyl)-1,3-oxathiolan-5-yl]-2(1H)-pyrimidinone] |  | does not undergo any change in crystal structure during milling |
